Where two headings read alike, the source gives them in different places.
What was measured:
hGPR65 [1] = biological target: T1, hGPR65 (Homo sapiens, UniProt Q8IYL9); assay: cAMP detection in HeLa expression cell line, hGPR65; type: cell-based; conditions: for EC50 / Emax: NA = no activity; for Emax: HeLa, relative to 100uM forskolin (100%) and DMSO (0%), read-out: hGPR Max Activity %
T1 construct: expressed in transfected cells; host or cells: HeLa (ATCC CCL-2), lentiviral transduction, pLX317
T1 sequence (Q8IYL9 whole entry): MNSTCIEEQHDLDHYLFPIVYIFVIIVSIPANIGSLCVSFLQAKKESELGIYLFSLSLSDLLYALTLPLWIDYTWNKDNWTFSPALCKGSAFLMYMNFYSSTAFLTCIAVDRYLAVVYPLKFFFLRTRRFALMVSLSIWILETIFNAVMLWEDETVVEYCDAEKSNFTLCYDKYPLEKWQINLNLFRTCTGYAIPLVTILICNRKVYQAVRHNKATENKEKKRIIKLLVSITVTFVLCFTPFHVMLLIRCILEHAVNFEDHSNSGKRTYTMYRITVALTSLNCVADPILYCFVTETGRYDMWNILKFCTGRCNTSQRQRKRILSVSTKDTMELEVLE
In short: (§1)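 HeLa cells stably expressing C-terminally V5-tagged receptor or GFP (lentiviral, puromycin 3 μg/ml) stimulated at 1500 cells per well for 30 min at RT with compound (10 mM DMSO stock) in stimulation buffer at pH 7.2. cAMP detected by Lance Ultra TR-FRET after lysis and 1 h detection, excitation 337 nm, emission 620/665 nm.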

mGPR65 = biological target: T2, mGPR65 (Mus musculus, UniProt Q61038); assay: cAMP detection in HeLa expression cell line, mGPR65; type: cell-based; conditions: for EC50 / Emax: NA = no activity; for Emax: HeLa, relative to 100uM forskolin (100%) and DMSO (0%), read-out: mGPR Max Activity %
T2 construct: expressed in transfected cells; host or cells: HeLa (ATCC CCL-2), lentiviral transduction, pLX317
T2 sequence (Q61038 whole entry): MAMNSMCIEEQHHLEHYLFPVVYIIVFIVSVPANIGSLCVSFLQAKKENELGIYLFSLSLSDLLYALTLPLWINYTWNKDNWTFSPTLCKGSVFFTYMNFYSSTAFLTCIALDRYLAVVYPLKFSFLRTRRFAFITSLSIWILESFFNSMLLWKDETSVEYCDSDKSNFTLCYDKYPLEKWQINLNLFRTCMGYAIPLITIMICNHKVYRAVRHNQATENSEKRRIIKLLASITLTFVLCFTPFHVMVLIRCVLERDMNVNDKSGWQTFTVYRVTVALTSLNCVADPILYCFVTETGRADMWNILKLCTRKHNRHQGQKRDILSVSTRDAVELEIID
In short: as §1

[2] = test system: GFP-expressing HeLa cells; assay: cAMP detection in HeLa expression cell line, GFP control; type: cell-based, human; conditions: Homo sapiens, HeLa, NA = no activity; for Emax: relative to 100uM forskolin (100%) and DMSO (0%), read-out: GFP Max Activity %
Experimental: HeLa stable expression cell lines were produced by lentiviral transduction. Briefly, lentiviral plasmids for each GPCR with a C-terminal V5 Tag ([…]) were made in a pLX317 backbone using competent Escherichia coli (New England Biolabs, C3050H). Lenti-X 293 T (Takara, 632810) cells were transfected with the lentiviral plasmids to produce virus. Low-passage HeLa cells (American Type Culture Collection, CCL-2) were then transduced with lentivirus. After 48 hours, HeLa cells were cultured under selection with puromycin (3 μg/ml) and allowed to recover and expand before storing stocks in liquid nitrogen.
cAMP was measured in cells using the Lance Ultra cAMP Kit. HeLa cells were cultured under puromycin (3 μg/ml) selection. One day before the experiment, cells were seeded in T75 flasks and allowed to adhere overnight. On the day of the experiment, cells were washed twice with Dulbecco’s PBS and lifted using prewarmed 1× versene solution (Gibco, 15040066). Cells were counted in HBSS (Gibco, 14025092) and then resuspended in stimulation buffer prepared according to the manufacturer’s instructions and adjusted to pH 7.2 using 1 M sodium hydroxide. Cells were added to the plate at a density of 1500 cells per well in white opaque 384-well assay ready microplates containing 100 nl of 10 mM compound in DMSO. Cells were stimulated for 30 min at RT, then lysed and incubated with detection reagents for 1 hour in the dark at RT. Plates were read on BMG Labtech PHERAstar FSX (excitation, 337 nm; emission, 620 and 665 nm). Data analysis was performed using GraphPad Prism.

hGPR65 [3] = biological target: T1, hGPR65; assay: cAMP detection (Lance Ultra), GPR65 KO HeLa reconstituted with hGPR65; 21K screen dose confirmation; type: cell-based; conditions: HeLa GPR65 KO + hGPR65, pH 7.1, 30 min, normalized to DMSO and 100 μM forskolin; read-out: WT EC50
Experimental: (§2) The Lance Ultra cAMP Kit (PerkinElmer, TRF0264) was used for cAMP detection, and included the following reagents: ULight anti-cAMP antibody, Eu-cAMP tracer, 7.5% BSA Stabilizer solution, and cAMP detection buffer. Stimulation buffer was prepared as described by the kit manufacturer as follows: Hanks buffered saline solution (HBSS, Life Technologies, 14025-126) containing 0.5 mM IBMX (3-isobutyl-1-methylxanthine, Sigma-Aldrich, I7018) and buffered with 1 M Hepes (15630-080). Stimulation buffer was then adjusted to pH 7.1 using 12 N HCl. HeLa cells were lifted using Versene and then suspended at 2.5 × 10^5 cells/ml in stimulation buffer. Cells were then plated at 20 μl per well (5000 cells per well) in white, opaque OptiPlate 384-well MicroPlates (PerkinElmer, 6007299) using a Thermo Fisher Scientific Combi liquid dispenser. Compounds, stored at 5 mM in DMSO for the primary screen, or in a range of concentrations from 39 μM to 20 mM for dose curves, were transferred by the CyBio CyBi-Well Vario pin transfer tool with 100-nl pins (V&P FP1NS50H, 50-nl slot, 0.457-mm diameter, hydrophobic coated), into each assay well, 100 nl per well for a final assay concentration of 25 μM for the primary screen, or 195 nM to 100 μM for dose curves. Assay plates were then incubated at RT for 30 min. Eu-cAMP tracer was diluted 1:33 into detection buffer and the final solution then distributed into assay wells, 5 μl per well. ULight anti-cAMP antibody was diluted 1:100 into detection buffer, then distributed into assay wells, also 5 μl per well. Assay plates were then incubated at RT in the dark for 1 hour. Eu-cAMP tracer and Förster resonance energy transfer (FRET) emissions were then read using a PerkinElmer EnVision Multimode plate reader (ENVISION21040010), exciting each well at 320 nm [UV2 (TRF) 320 filter] and reading emissions at 615 nm (Europium 615 filter) and 665 nm (APC665 filter). Data analysis was performed using Genedata Screener and GraphPad Prism.
(§3) HeLa KO cell lines were generated using the px330 plasmid CRISPR system as previously described ([18]). Briefly, HeLa cells were transfected with a Cas9 vector containing a gene-specific single-guide RNA to target the GPR65 coding exon. Forty-eight to 72 hours after transfection, single clones were obtained through limiting dilution and then sequenced to validate the KO. Reconstituted cell lines were produced by transducing KO cells with empty lentivirus or lentivirus containing hGPR65 or mGPR65. After 48 hours, cells were treated with puromycin (3 μg/ml; InvivoGen, ant-pr-1) and resistant cells were used in experiments.

[4] = test system: GPR65 KO HeLa cells + pLX empty vector; assay: cAMP detection, GPR65 KO HeLa + empty pLX vector (null control); type: cell-based, human; conditions: HeLa GPR65 KO + pLX, pH 7.1, 30 min, normalized to DMSO and 100 μM forskolin
Experimental: as §2, §3

[5] = 1st hGPR column pair, read-out: hGPR EC50
[6] = 2nd hGPR column pair, read-out: hGPR EC50
[7] = 1st mGPR column pair, read-out: mGPR EC50
[8] = 2nd mGPR column pair, read-out: mGPR EC50

## CCCc1cc(-c2cc(O)n3ncc(C(=O)Nc4ccc(C)cc4)c3n2)no1 [BRD8472]
hGPR65 [1]; [5]
  EC50: 1.25 µM
hGPR65 [1]; [6]
  EC50: 0.79 µM
hGPR65 [1]; 1st hGPR column pair
  Emax: 67.7%
hGPR65 [1]; 2nd hGPR column pair
  Emax: 51.3%
mGPR65; [7]
  EC50: 0.103 µM
mGPR65; [8]
  EC50: 0.397 µM
mGPR65; 2nd mGPR column pair
  Emax: 55.4%
mGPR65
  Emax: 59.4%
[2]; 1st GFP column pair
  EC50: 24.9 µM
  Emax: 2.75%

## Cc1ccc(NC(=O)c2cnn3c(O)cc(-c4ccc(N5CCC(=O)CC5)cc4)nc23)cc1 [BRD8536]
hGPR65 [1]; [5]
  EC50: 4.05 µM
hGPR65 [1]; [6]
  EC50: 5.53 µM
hGPR65 [1]; 1st hGPR column pair
  Emax: 65.7%
hGPR65 [1]; 2nd hGPR column pair
  Emax: 63.9%
mGPR65; [7]
  EC50: 0.98 µM
mGPR65; [8]
  EC50: 2.81 µM
mGPR65; 2nd mGPR column pair
  Emax: 52.9%
mGPR65
  Emax: 63.5%
[2]; 1st GFP column pair
  EC50: 0.801 µM
  Emax: 1.86%

## Cc1ccc(NC(=O)c2cnn3c(O)cc(-c4ccc(-c5ccccc5)cc4)nc23)cc1 [BRD8716]
hGPR65 [1]; [5]
  EC50: 0.171 µM
hGPR65 [1]; [6]
  EC50: 0.284 µM
hGPR65 [1]; 1st hGPR column pair
  Emax: 79.2%
hGPR65 [1]; 2nd hGPR column pair
  Emax: 72.4%
hGPR65 [1]; receptor not given
  potency and total cAMP production relative to BRD2813: improved potency but had little effect on total cAMP production
mGPR65; [7]
  EC50: 0.368 µM
mGPR65; [8]
  EC50: 0.528 µM
mGPR65; 2nd mGPR column pair
  Emax: 33.1%
mGPR65
  Emax: 40.2%
[2]; 1st GFP column pair
  EC50: 7.3 µM
  Emax: 1.95%
[2]; 2nd GFP column pair
  EC50: 5.6 µM
  Emax: 1.51%

## COCc1ccc(-c2cc(O)n3ncc(C(=O)Nc4ccccc4)c3n2)cc1 [BRD9876]
hGPR65 [1]; 1st hGPR column pair
  Emax: 81.6%
hGPR65 [1]; 2nd hGPR column pair
  Emax: 79.5%
hGPR65 [1]; hGPR EC50 (uM)
  EC50: 8.06 µM
hGPR65 [1]; hGPR EC50
  EC50: 12 µM
hGPR65 [1]; pH 7.2
  cAMP production relative to BRD2813, hGPR65: detrimental to potency
mGPR65; 2nd mGPR column pair
  Emax: 34.4%
mGPR65
  Emax: 45.3%
mGPR65; mGPR EC50 (uM), 2nd mGPR column pair
  EC50: 4.76 µM
mGPR65; mGPR EC50 (uM)
  EC50: 4.06 µM
mGPR65; pH 7.2
  cAMP production relative to BRD2813, mGPR65: decreased potency
[2]; 1st GFP column pair
  EC50: 3.62 µM
  Emax: 1.96%
[2]; 2nd GFP column pair
  EC50: 25.7 µM
  Emax: 3.97%

## CC(Sc1nc2ncnc(N)c2[nH]1)C(=O)O (stereo not drawn) [BRD-A18106607-001-02-5]
hGPR65 [3]
  EC50: 6 µM
[4]
  EC50: 6.4 µM

## Cc1cnccc1CN1CC(C(=O)O)CC1=O (stereo not drawn) [BRD-A19095755-001-02-9]
hGPR65 [3]
  EC50: 20.1 µM
[4]
  EC50: 16.9 µM

## CCCCC(CC)C(=O)Oc1ccc2c(c1)oc(=O)c1ccccc12 (stereo not drawn) [BRD-A19872532-001-02-1]
hGPR65 [3]
  EC50: > 100 µM
[4]
  EC50: > 100 µM

## CCN1CCCc2cc(-c3cncn3C(C)CN3CCOCC3)ccc21 (stereo not drawn) [BRD-A40378740-001-02-0]
hGPR65 [3]
  EC50: > 100 µM
[4]
  EC50: > 100 µM

## CC(=O)N1CCCC(CCCc2ccncc2)(C(=O)O)C1 (stereo not drawn) [BRD-A44875014-001-02-0]
hGPR65 [3]
  EC50: 13.2 µM
[4]
  EC50: 14.7 µM

## CN1CCN(c2ccnc3ccccc23)CC1C(=O)O (stereo not drawn) [BRD-A45312230-001-02-1]
hGPR65 [3]
  EC50: 1.2 µM
[4]
  EC50: 1.3 µM

## CC(NC(=O)c1ccc2ncccc2c1)c1cc(=O)[nH]c(N2CCN(C)CC2)n1 (stereo not drawn) [BRD-A49179268-001-02-5]
hGPR65 [3]
  EC50: 83.4 µM
[4]
  EC50: 67.5 µM

## Clc1ccc2c(N3CCCC4(CCNC4)C3)ccnc2c1 (stereo not drawn) [BRD-A50085437-001-02-6]
hGPR65 [3]
  EC50: 26.2 µM
[4]
  EC50: 33.5 µM

## Cc1cc(C)n(CC(O)CN(Cc2ccco2)Cc2cccc3ncccc23)n1 (stereo not drawn) [BRD-A63170499-001-02-6]
hGPR65 [3]
  EC50: > 100 µM
[4]
  EC50: > 100 µM

## O=S1(=O)CCC(Cn2cc(-c3ccnc4ccccc34)nn2)C1 (stereo not drawn) [BRD-A69528226-001-02-9]
hGPR65 [3]
  EC50: 19.9 µM
[4]
  EC50: 17 µM

## Cc1nc(C2CCCNC2)cc(N(C)Cc2cccc3cnccc23)n1 (stereo not drawn) [BRD-A78843635-001-02-6]
hGPR65 [3]
  EC50: > 100 µM
[4]
  EC50: 95.8 µM

## O=C1CC(N2CCN(c3ncccn3)CC2)C(=O)N1c1ccccc1 (stereo not drawn) [BRD-A87117975-001-02-2]
hGPR65 [3]
  EC50: 71.1 µM
[4]
  EC50: 54.8 µM

## CN(C)CCOC(=O)C1CC2=C(CCCC2(C)C)CC1C(=O)O (stereo not drawn) [BRD-A91973386-001-02-5]
hGPR65 [3]
  EC50: 59.6 µM
[4]
  EC50: 70.7 µM

## COc1ccc(S(=O)(=O)N2C[C@@H](N)[C@H](c3cn(C)c4cnccc34)C2)cc1 [BRD-K00063734-001-02-2]
hGPR65 [3]
  EC50: 73.6 µM
[4]
  EC50: 63.2 µM

## O=C(O)CCSCCc1ccncc1 [BRD-K06534048-001-02-7]
hGPR65 [3]
  EC50: 37.8 µM
[4]
  EC50: 29.3 µM

## CS(=O)(=O)N1CCN(c2ccnc3cc(Cl)ccc23)CC1 [BRD-K06900104-001-09-6]
hGPR65 [3]
  EC50: 27.5 µM
[4]
  EC50: 23 µM

## O=C(CSc1ncnc2sc3c(c12)CCCC3)Nc1nccs1 [BRD-K40136431-001-02-4]
[4]
  EC50: > 100 µM

## CC(C)CCn1c(Sc2nc3ccccc3s2)nc2c1c(=O)[nH]c(=O)n2C [BRD-K74743357-001-08-3]
[4]
  EC50: 77.4 µM

From publication PMC11259170, “Small-molecule probe for IBD risk variant GPR65 I231L alters cytokine signaling networks through positive allosteric modulation” (Science Advances, 2024)
